Assay results as given in patent US8431706B2, “1,2,3,4-tetrahydroqinoline derivative useful for the treatment of diabetes” (Eli Lilly and Company, priority 2011, dated 2013).

Experiments:
[1] = tested on: mouse insulinoma cell line Min6; assay: Glucose Dependent Insulin Secretion (GDIS) assay in Min6 cells; format: cell-based
Experimental: (§1) Because activation of GPR40 is known to result in insulin secretion, which is dependent on high glucose concentrations, two separate assay systems (an insulinoma cell line and primary rodent islets) are developed to further characterize compounds that are known to increase intracellular calcium in the GPR40 primary assay discussed above.
GDIS assays are performed using the mouse insulinoma cell line Min6. […] On the day of the experiment, the cells are washed twice with 200 μl of pre-warmed Krebs-ringer buffer without glucose. Addition of 200 μL of pre-warmed Krebs-ringer buffer containing 2.5 mM glucose is used to starve the cells followed by the addition of compounds in the presence of a high concentration of glucose (25 mM). The plate is incubated at 37° C. for 2 hours. At the end of the 2 h incubation, the supernatant is gently transferred into a Millipore filter plate and spun at 200 g (gravitational force) for 3 minutes. Insulin is assayed using a Mercodia Insulin estimation kit.

[2] = tested on: primary rodent pancreatic islets of Langerhans; assay: GDIS assay in primary rodent pancreatic islets; format: cell-based; details: 3.0 uM with rat islets and 11.2 mM glucose; compared to 11.2 mM glucose; 90 min; P<0.05
Excerpt: as §1
GDIS assays using primary rodent pancreatic islets of Langerhans are also used to characterize the exemplified compound. Pancreatic islets are isolated from male SD (Sprague Dawley) rats by collagenase digestion and Histopaque density gradient separation. The islets are cultured overnight in RPMI-1640 medium with GlutaMAXn (stabilized, dipeptide form of L-glutamine (Invitrogen catalog #61870-010)) to facilitate recovery from the isolation process. Insulin secretion is determined by a 90 minute incubation in EBSS (Earle's Balances Salt Solution) buffer in a 48-well plate. Briefly, islets are first preincubated in EBSS with 2.8 mM glucose for 30 min, and are then transferred to a 48-well plate (four islets/well) containing 150 μl 2.8 mM glucose, and incubated with 150 μl of EBSS with 2.8 or 11.2 mM glucose in the presence or absence of test compound for 90 minutes. The buffer is removed from the wells at the end of the incubation, and assayed for insulin levels using the Rat Insulin ELISA kit (Mercodia). […]

human GPR40 = human GPR40 (Homo sapiens, UniProt O14842); assay: cell-based
human GPR40, sequence (O14842 whole entry, the tested form may be a part): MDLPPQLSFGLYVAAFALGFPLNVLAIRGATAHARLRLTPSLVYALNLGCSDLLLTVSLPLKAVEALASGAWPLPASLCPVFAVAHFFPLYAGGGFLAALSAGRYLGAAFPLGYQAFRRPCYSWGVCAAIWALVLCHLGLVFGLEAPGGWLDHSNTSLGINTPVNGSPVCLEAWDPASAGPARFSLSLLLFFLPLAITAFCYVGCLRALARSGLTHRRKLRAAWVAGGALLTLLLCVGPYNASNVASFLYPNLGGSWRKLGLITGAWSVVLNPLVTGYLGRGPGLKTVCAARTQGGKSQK

Gal4 PPARα = molecular target: T1, Gal4 PPARα (Homo sapiens, UniProt Q07869); assay: Gal4 PPARα reporter functional assay in CV1 cells; format: cell-based; details: examined up to 10 μM; luciferase reporter; 24 hours
T1 construct: expressed in transfected cells; host or cells: CV1 (African green monkey kidney)
T1 sequence (Q07869 239-466 limits assumed): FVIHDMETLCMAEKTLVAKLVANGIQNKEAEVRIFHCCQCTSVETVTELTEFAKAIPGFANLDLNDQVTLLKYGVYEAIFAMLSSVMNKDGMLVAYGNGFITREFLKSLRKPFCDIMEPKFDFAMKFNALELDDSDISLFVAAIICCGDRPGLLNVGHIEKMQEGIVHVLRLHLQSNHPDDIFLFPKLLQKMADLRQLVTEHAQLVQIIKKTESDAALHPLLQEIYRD
Excerpt: Gal4 PPARα, Gal4 PPARδ, and PPARγ reporter functional assays are also used to monitor the selectivity of the exemplified compound. CV1 cells, which are derived from the renal tissue of an African green monkey, are transfected with various receptor and reporter plasmids using Fugene. For the Gal4 PPARα and PPARδ assays, a reporter plasmid containing five tandem copies of the yeast transcription protein Gal4 response element, cloned upstream of a firefly luciferase gene driven by the major late promoter of adenovirus, is transfected together with a Simian Virus 40 (SV40) driven plasmid constitutively expressing a hybrid protein containing the Gal4 DNA binding domain (DBD), and either the PPARα or PPARδ ligand binding. For the PPARγ assay, plasmids encoding PPARγ and RXRα, both driven by a cytomegalovirus (CMV) promoter are transfected together with a plasmid containing luciferase reporter cDNA driven by the TK promoter and a receptor response element (2×PPRE). Cells are transfected in T225 cm^2 cell culture flasks in DMEM media with 5% charcoal-stripped FBS. […] After 24 hours incubation with the compound, cells are lysed and luciferase activity is determined as a measure of receptor activation by luminescence. […] The maximum percent stimulation is determined versus maximum stimulation obtained with 10 μM of an appropriate PPAR agonist reference compound. […]

EC50 (human GPR40; EC50, HEK293 cells over expressing human GPR40, 0.1% fatty acid free BSA, FLIPR): 152 nM
EC50 (human GPR40; EC50 value for the Calcium Flux Primary assay, HEK293 cells over expressing human GPR40, bound stated): < 1000 nM
functional activation of PPARα (Gal4 PPARα): No functional activation
SMILES: CC#C[C@@H](CC(=O)O)c1ccc(OCc2ccc(CN3CCCc4cccc(OC)c43)s2)cc1 [Example 1, (3S)-3-[4-[[5-[(8-Methoxy-3,4-dihydro-2H-quinolin-1-yl)methyl]-2-thienyl]methoxy]phenyl]hex-4-ynoic acid]
increase in insulin secretion ([1]; 1.0 μM plus 25 mM glucose, fold over 25 mM glucose, 2 h, P<0.01): 2.68 fold
insulin secretion, dose response ([1]; 0.01, 0.1, 1.0 and 10.0 μM plus 25 mM glucose): dose dependent increase in insulin secretion
increase in insulin [2]: 2.1 fold
